Tests used:
Serotonin reuptake = target: T1, Serotonin reuptake (Rattus norvegicus, UniProt P31652); assay: Inhibition of 5HT (serotonin) uptake in rat brain synaptosomes; format: biochemical; settings: 10 μmol; synaptosomes from rat brain
T1 construct: synaptosomes are freshly isolated from areas of the rat brain; from tissue; host or cells: rat brain synaptosomes (P2 fraction)
Protocol: (§1) Biological Data Inhibition of NA and 5HT Uptake
(§2) In order to be able to carry out these in vitro studies, synaptosomes are freshly isolated from areas of the rat brain. In each case a so-called “P2” fraction prepared in accordance with the instructions of Gray and Whittaker (E. G. Gray and V. P. Whittaker (1962) J. Anat. 76, 79-88) is prepared. For the NA uptake, these vesicular particles are isolated from the hypothalamus of male rat brains. A detailed description of the method can be found in the literature (M. Ch. Frink, H.-H. Hennies, W. Englberger, M. Haurand and B. Wilffert (1996) Arzneim.-Forsch./Drug Res. 46 (III), 11, 1029-1036).

NA reuptake = assay: Inhibition of NA (noradrenaline) uptake in rat hypothalamus synaptosomes; format: biochemical; settings: synaptosomes from hypothalamus of male rat brains
Protocol: as §1, §2

T1 sequence (P31652 whole entry): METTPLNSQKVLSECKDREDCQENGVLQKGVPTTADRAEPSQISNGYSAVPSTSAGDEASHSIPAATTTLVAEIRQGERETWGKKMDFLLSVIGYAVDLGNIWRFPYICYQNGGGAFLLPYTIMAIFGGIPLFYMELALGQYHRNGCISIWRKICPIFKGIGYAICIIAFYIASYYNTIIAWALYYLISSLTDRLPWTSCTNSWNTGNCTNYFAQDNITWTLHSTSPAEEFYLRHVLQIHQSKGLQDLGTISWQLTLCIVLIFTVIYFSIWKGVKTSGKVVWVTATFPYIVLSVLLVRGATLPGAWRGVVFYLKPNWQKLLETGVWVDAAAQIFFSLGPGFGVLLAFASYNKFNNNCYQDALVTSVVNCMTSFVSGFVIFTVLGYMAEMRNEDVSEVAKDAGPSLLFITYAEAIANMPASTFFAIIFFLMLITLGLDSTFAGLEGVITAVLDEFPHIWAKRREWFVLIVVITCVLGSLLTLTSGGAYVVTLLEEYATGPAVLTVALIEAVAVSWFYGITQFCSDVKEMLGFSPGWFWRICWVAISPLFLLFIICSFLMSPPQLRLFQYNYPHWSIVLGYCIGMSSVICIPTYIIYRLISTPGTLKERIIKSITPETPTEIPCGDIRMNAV

With COc1ccccc1C1c2cccn2CCN1C(=O)c1ccc2c(c1)OCO2 (stereo not drawn) [Example 3, benzo[1,3]dioxol-5-yl-[1-(2-methoxy-phenyl)-3,4-dihydro-1H-pyrrolo[1,2-a]pyrazin-2-yl]-methanone] the inhibition at 10 µM (Serotonin reuptake) was 86% and the “NA reuptake % inhibition [10 μmol]” value (NA reuptake) was 29%.

In the case of O=C(C1CCCC1)N1CCn2cccc2C1c1ccc(Cl)c(Cl)c1 (stereo not drawn) [Example 62, cyclopentyl-[1-(3,4-dichloro-phenyl)-3,4-dihydro-1H-pyrrolo[1,2-a]pyrazin-2-yl]-methanone], the inhibition at 10 µM (Serotonin reuptake) is reported as 51% and the “NA reuptake % inhibition [10 μmol]” value (NA reuptake) is reported as 29%.

For Cc1ccccc1C1c2cccn2CCN1C(=O)C1CCCC1 (stereo not drawn) [Example 10, cyclopentyl-(1-o-tolyl-3,4-dihydro-1H-pyrrolo[1,2-a]pyrazin-2-yl)-methanone], the inhibition at 10 µM (Serotonin reuptake) was 50% and the “NA reuptake % inhibition [10 μmol]” value (NA reuptake) was 30%.

For O=C(c1ccco1)N1CCn2cccc2C1c1ccccc1 (stereo not drawn) [Example 21, furan-2-yl(1-phenyl-3,4-dihydropyrrolo[1,2-a]pyrazin-2(1H)-yl)methanone], the inhibition at 10 µM (Serotonin reuptake) was 11% and the “NA reuptake % inhibition [10 μmol]” value (NA reuptake) was 44%.

For O=C(c1ccco1)N1CCn2cccc2C1c1ccc(Cl)c(Cl)c1 (stereo not drawn) [Example 68, [1-(3,4-dichloro-phenyl)-3,4-dihydro-1H-pyrrolo[1,2-a]pyrazin-2-yl]-furan-2-yl-methanone], the inhibition at 10 µM (Serotonin reuptake) was 57% and the “NA reuptake % inhibition [10 μmol]” value (NA reuptake) was 48%.

COc1ccccc1C1c2cccn2CCN1C(=O)c1ccccc1F (stereo not drawn) [Example 49, (2-fluorophenyl)(1-(2-methoxyphenyl)-3,4-dihydropyrrolo[1,2-a]pyrazin-2(1H)-yl)methanone] was tested, and the inhibition at 10 µM (Serotonin reuptake) was 47% and the “NA reuptake % inhibition [10 μmol]” value (NA reuptake) was 12%.

In the case of CN(C)c1ccc(C2c3cccn3CCN2C(=O)c2ccc(F)cc2)cc1 (stereo not drawn) [Example 54, (1-(4-(dimethylamino)phenyl)-3,4-dihydropyrrolo[1,2-a]pyrazin-2(1H)-yl)(4-fluorophenyl)methanone], the inhibition at 10 µM (Serotonin reuptake) is reported as 47% and the “NA reuptake % inhibition [10 μmol]” value (NA reuptake) is reported as 40%.

In the case of O=C(c1ccccc1F)N1CCn2cccc2C1c1ccc(Cl)c(Cl)c1 (stereo not drawn) [Example 63, [1-(3,4-dichloro-phenyl)-3,4-dihydro-1H-pyrrolo[1,2-a]pyrazin-2-yl]-(2-fluoro-phenyl)-methanone], the inhibition at 10 µM (Serotonin reuptake) is reported as 65% and the “NA reuptake % inhibition [10 μmol]” value (NA reuptake) is reported as 71%.

With Cc1ccc(C2c3cccn3CCN2C(=O)c2ccccc2F)cc1 (stereo not drawn) [Example 69, (2-fluorophenyl)(1-p-tolyl-3,4-dihydropyrrolo[1,2-a]pyrazin-2(1H)-yl)methanone] the inhibition at 10 µM (Serotonin reuptake) was 40% and the “NA reuptake % inhibition [10 μmol]” value (NA reuptake) was 12%.

With O=C(c1ccc(F)cc1)N1CCn2cccc2C1c1ccccc1 (stereo not drawn) [Example 20, (4-fluorophenyl)(1-phenyl-3,4-dihydropyrrolo[1,2-a]pyrazin-2(1H)-yl)methanone] the inhibition at 10 µM (Serotonin reuptake) was 32% and the “NA reuptake % inhibition [10 μmol]” value (NA reuptake) was 33%.

For CN(C)c1ccc(C2c3cccn3CCN2C(=O)C2CC2)cc1 (stereo not drawn) [Example 52, cyclopropyl(1-(4-(dimethylamino)phenyl)-3,4-dihydropyrrolo[1,2-a]pyrazin-2(1H)-yl)methanone], the inhibition at 10 µM (Serotonin reuptake) was 27% and the “NA reuptake % inhibition [10 μmol]” value (NA reuptake) was 16%.

For Cc1cccc(C2c3cccn3CCN2C(=O)c2ccc3c(c2)OCO3)c1 (stereo not drawn) [Example 18, benzo[1,3]dioxol-5-yl-(1-m-tolyl-3,4-dihydro-1H-pyrrolo[1,2-a]pyrazin-2-yl)-methanone], the inhibition at 10 µM (Serotonin reuptake) was 55% and the “NA reuptake % inhibition [10 μmol]” value (NA reuptake) was 40%.

For Cc1ccccc1C(=O)N1CCn2cccc2C1c1cccc(Cl)c1 (stereo not drawn) [Example 41, (1-(3-chlorophenyl)-3,4-dihydropyrrolo[1,2-a]pyrazin-2(1H)-yl)(o-tolyl)methanone], the inhibition at 10 µM (Serotonin reuptake) was 37% and the “NA reuptake % inhibition [10 μmol]” value (NA reuptake) was 35%.

In the case of O=C(c1ccccc1F)N1CCn2cccc2C1c1cccc(Cl)c1 (stereo not drawn) [Example 44, [1-(3-chloro-phenyl)-3,4-dihydro-1H-pyrrolo[1,2-a]pyrazin-2-yl]-(2-fluoro-phenyl)-methanone], the inhibition at 10 µM (Serotonin reuptake) is reported as 53% and the “NA reuptake % inhibition [10 μmol]” value (NA reuptake) is reported as 41%.

In the case of Cc1ccccc1C1c2cccn2CCN1C(=O)c1ccccc1F (stereo not drawn) [Example 32, (2-fluorophenyl)(1-o-tolyl-3,4-dihydropyrrolo[1,2-a]pyrazin-2(1H)-yl)methanone], the inhibition at 10 µM (Serotonin reuptake) is reported as 29% and the “NA reuptake % inhibition [10 μmol]” value (NA reuptake) is reported as 14%.

With Cc1cccc(C2c3cccn3CCN2C(=O)c2cccc(F)c2)c1 (stereo not drawn) [Example 16, (3-fluoro-phenyl)-(1-m-tolyl-3,4-dihydro-1H-pyrrolo[1,2-a]pyrazin-2-yl)-methanone] the inhibition at 10 µM (Serotonin reuptake) was 54% and the “NA reuptake % inhibition [10 μmol]” value (NA reuptake) was 49%.

For O=C(c1ccc(F)cc1)N1CCn2cccc2C1c1ccc(F)cc1F (stereo not drawn) [Example 19, (1-(2,4-difluorophenyl)-3,4-dihydropyrrolo[1,2-a]pyrazin-2(1H)-yl)(4-fluorophenyl)methanone], the inhibition at 10 µM (Serotonin reuptake) was 35% and the “NA reuptake % inhibition [10 μmol]” value (NA reuptake) was 28%.

COc1cccc(C2c3cccn3CCN2C(=O)c2ccco2)c1 (stereo not drawn) [Example 30, furan-2-yl(1-(3-methoxyphenyl)-3,4-dihydropyrrolo[1,2-a]pyrazin-2(1H)-yl)methanone] was tested, and the inhibition at 10 µM (Serotonin reuptake) was 51% and the “NA reuptake % inhibition [10 μmol]” value (NA reuptake) was 16%.

In the case of Cc1ccccc1C(=O)N1CCn2cccc2C1c1ccc(F)cc1 (stereo not drawn) [Example 75, (1-(4-fluorophenyl)-3,4-dihydropyrrolo[1,2-a]pyrazin-2(1H)-yl)(o-tolyl)methanone], the inhibition at 10 µM (Serotonin reuptake) is reported as 38% and the “NA reuptake % inhibition [10 μmol]” value (NA reuptake) is reported as 17%.

In the case of O=C(C1CCC1)N1CCn2cccc2C1c1ccc(F)cc1 (stereo not drawn) [Example 28, cyclobutyl(1-(4-fluorophenyl)-3,4-dihydropyrrolo[1,2-a]pyrazin-2(1H)-yl)methanone], the inhibition at 10 µM (Serotonin reuptake) is reported as 29% and the “NA reuptake % inhibition [10 μmol]” value (NA reuptake) is reported as 21%.

CC(C)CC(=O)N1CCn2cccc2C1c1ccc(Cl)c(Cl)c1 (stereo not drawn) [Example 64, 1-(1-(3,4-dichlorophenyl)-3,4-dihydropyrrolo[1,2-a]pyrazin-2(1H)-yl)-3-methylbutan-1-one] was tested, and the inhibition at 10 µM (Serotonin reuptake) was 48% and the “NA reuptake % inhibition [10 μmol]” value (NA reuptake) was 30%.

In the case of O=C(C1CC1)N1CCn2cccc2C1c1cccs1 (stereo not drawn) [Example 59, cyclopropyl(1-(thiophen-2-yl)-3,4-dihydropyrrolo[1,2-a]pyrazin-2(1H)-yl)methanone], the inhibition at 10 µM (Serotonin reuptake) is reported as 31% and the “NA reuptake % inhibition [10 μmol]” value (NA reuptake) is reported as 10%.

O=C(/C=C/c1ccccc1)N1CCn2cccc2C1c1cccs1 (stereo not drawn) [Example 72, 3-phenyl-1-(1-(thiophen-2-yl)-3,4-dihydropyrrolo[1,2-a]pyrazin-2(1H)-yl)prop-2-en-1-one] was tested, and the inhibition at 10 µM (Serotonin reuptake) was 28% and the “NA reuptake % inhibition [10 μmol]” value (NA reuptake) was 23%.

For Cc1ccccc1C(=O)N1CCn2cccc2C1c1ccc2c(c1)OCCO2 (stereo not drawn) [Example 34, [1-(2,3-dihydro-benzo[1,4]dioxin-6-yl)-3,4-dihydro-1H-pyrrolo[1,2-a]pyrazin-2-yl]-o-tolyl-methanone], the inhibition at 10 µM (Serotonin reuptake) was 52% and the “NA reuptake % inhibition [10 μmol]” value (NA reuptake) was 22%.

In the case of O=C(c1ccccc1)N1CCn2cccc2C1c1cccs1 (stereo not drawn) [Example 82, phenyl(1-(thiophen-2-yl)-3,4-dihydropyrrolo[1,2-a]pyrazin-2(1H)-yl)methanone], the “NA reuptake % inhibition [10 μmol]” value (NA reuptake) is reported as 35%.

Compound CCC(C)C(=O)N1CCn2cccc2C1c1ccccc1C (stereo not drawn) [Example 31, 2-methyl-1-(1-o-tolyl-3,4-dihydropyrrolo[1,2-a]pyrazin-2(1H)-yl)butan-1-one] has an inhibition at 10 µM (Serotonin reuptake) of 26%.

CCC(OC)C(=O)N1CCn2cccc2C1c1cccs1 (stereo not drawn) [Example 55, 2-methoxy-1-(1-(thiophen-2-yl)-3,4-dihydropyrrolo[1,2-a]pyrazin-2(1H)-yl)butan-1-one] was tested, and the inhibition at 10 µM (Serotonin reuptake) was 28%.

CC(=O)N1CCn2cccc2C1c1cccs1 (stereo not drawn) [Example 83, 1-(1-(thiophen-2-yl)-3,4-dihydropyrrolo[1,2-a]pyrazin-2(1H)-yl)ethanone] gave an inhibition at 10 µM (Serotonin reuptake) of 16%.

Work on CC1c2cccn2CCN1C(=O)/C=C/c1ccc(SC(F)(F)F)cc1 (stereo not drawn) [Example 74, 1-(1-methyl-3,4-dihydropyrrolo[1,2-a]pyrazin-2(1H)-yl)-3-(4-(trifluoromethylthio)phenyl)prop-2-en-1-one] yielded an inhibition at 10 µM (Serotonin reuptake) of 32%.

Cc1ccccc1C(=O)N1CCn2cccc2C1c1ccccc1C (stereo not drawn) [Example 11, o-tolyl(1-o-tolyl-3,4-dihydropyrrolo[1,2-a]pyrazin-2(1H)-yl)methanone] was tested, and the inhibition at 10 µM (Serotonin reuptake) was 38%.

Compound CC1c2cccn2CCN1C(=O)/C=C/c1ccc(F)cc1 (stereo not drawn) [Example 73, 3-(4-fluorophenyl)-1-(1-methyl-3,4-dihydropyrrolo[1,2-a]pyrazin-2(1H)-yl)prop-2-en-1-one] has an inhibition at 10 µM (Serotonin reuptake) of 25%.

For COc1ccccc1C1c2cccn2CCN1C(=O)c1cccc(F)c1 (stereo not drawn) [Example 1, (3-fluorophenyl)(1-(2-methoxyphenyl)-3,4-dihydropyrrolo[1,2-a]pyrazin-2(1H)-yl)methanone], the inhibition at 10 µM (Serotonin reuptake) was 26%.

In the case of CC(C)(C)CC(=O)N1CCn2cccc2C1c1cccs1 (stereo not drawn) [Example 85, 3,3-dimethyl-1-(1-(thiophen-2-yl)-3,4-dihydropyrrolo[1,2-a]pyrazin-2(1H)-yl)butan-1-one], the inhibition at 10 µM (Serotonin reuptake) is reported as 12%.

CCCCCC(=O)N1CCn2cccc2C1c1cccs1 (stereo not drawn) [Example 78, 1-(1-(thiophen-2-yl)-3,4-dihydropyrrolo[1,2-a]pyrazin-2(1H)-yl)hexan-1-one] gave an inhibition at 10 µM (Serotonin reuptake) of 51%.

O=C(CCCc1ccccc1)N1CCn2cccc2C1c1cccs1 (stereo not drawn) [Example 87, 4-phenyl-1-(1-(thiophen-2-yl)-3,4-dihydropyrrolo[1,2-a]pyrazin-2(1H)-yl)butan-1-one] was tested, and the inhibition at 10 µM (Serotonin reuptake) was 17%.

Work on CCC(C)C(=O)N1CCn2cccc2C1c1ccccc1OC (stereo not drawn) [Example 48, 1-(1-(2-methoxyphenyl)-3,4-dihydropyrrolo[1,2-a]pyrazin-2(1H)-yl)-2-methylbutan-1-one] yielded an inhibition at 10 µM (Serotonin reuptake) of 27%.

From patent US7879858B2, “Substituted tetrahydropyrrolopyrazine compounds and the use thereof in pharmaceutical compositions” (Gruenenthal GmbH, priority 2006, dated 2011)
